Experimental data from the supplement of paper PMC4862054.
“And” between values parts separate entries of the source, which are not always exact repeats. Identical values can stand only once.

Key:
Test in all cases: normalised viability (% of control), CellTiter-Blue; higher = more viable cells (about 100 = DMSO control)
Conditions in all cases: incubation time: 72 h
[1] = system: MFM-223
Method in brief: (§1)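 384-well plates were pre-loaded with compound in 5 µl medium before 20 µl of breast cancer cell suspension was seeded. Following 72 h incubation, 2.5 µl CellTiter-Blue reagent was added for 2 h at 37 °C. Fluorescence was read at 560/590 nm and plates were normalised to vehicle (100) and a positive kill control (0), checked by Z'-factor. Normalised viability is reported at a single listed concentration of the series.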

[2] = system: CAL-148
Method in brief: as §1

[3] = system: BT-474
Method in brief: as §1

[4] = system: Hs578T
Method in brief: as §1

[5] = system: CAL-51
Method in brief: as §1

[6] = system: HCC1599
Method in brief: as §1

[7] = system: BT-549
Method in brief: as §1

[8] = system: HDQ-P1
Method in brief: as §1

[9] = system: HCC1937
Method in brief: as §1

[10] = system: HCC1143
Method in brief: as §1

[11] = system: MDA-MB-453
Method in brief: as §1

[12] = system: MDA-MB-468
Method in brief: as §1

[13] = system: MDA-MB-436
Method in brief: as §1

[14] = system: DU-4475
Method in brief: as §1

[15] = system: SK-BR-3
Method in brief: as §1

[16] = system: MDA-MB-231
Method in brief: as §1

[17] = system: CAL-120
Method in brief: as §1

[18] = system: CAL-85-1
Method in brief: as §1

[19] = system: CAL-148; remark: listed apart in the source
Method in brief: as §1

[20] = system: Hs578T; remark: listed apart in the source
Method in brief: as §1

[21] = system: CAL-51; remark: listed apart in the source
Method in brief: as §1

[22] = system: HCC1599; remark: listed apart in the source
Method in brief: as §1

[23] = system: HDQ-P1; remark: listed apart in the source
Method in brief: as §1

[24] = system: MDA-MB-468; remark: listed apart in the source
Method in brief: as §1

[25] = system: MDA-MB-436; remark: listed apart in the source
Method in brief: as §1

[26] = system: CAL-120; remark: listed apart in the source
Method in brief: as §1

[27] = system: CAL-85-1; remark: listed apart in the source
Method in brief: as §1

O=C(CCBr)N1CCN(C(=O)CCBr)CC1 [Pipobroman]
Conditions | normalised viability [%]
[1], 10 nM | 86.6
[1], 1000 nM | 90.4
[1], 10000 nM | 35.7
[2], 3 nM | 97.9
[2], 30 nM | 102
[2], 100 nM | 103
[3], 10 nM | 120
[3], 1000 nM | 102
[3], 10000 nM | 133
[4], 10 nM | 107
[4], 1000 nM | 97
[4], 10000 nM | 95.8
[5], 3 nM | 114
[5], 30 nM | 111
[5], 100 nM | 103
[6], 10 nM | 97
[6], 1000 nM | 92.8
[6], 10000 nM | 83.2
[7], 10 nM | 87.1
[7], 1000 nM | 87.1
[7], 10000 nM | 84.2
[8], 3 nM | 104
[8], 30 nM | 83.8
[8], 100 nM | 107
[9], 10 nM | 89.2
[9], 1000 nM | 77.9
[9], 10000 nM | 85.3
[10], 10 nM | 82
[10], 1000 nM | 86.2
[10], 10000 nM | 88.2
[11], 3 nM | 124
[11], 30 nM | 95.9
[11], 100 nM | 92.7
[12], 10 nM | 98
[12], 1000 nM | 94.2
[12], 10000 nM | 87.4
[13], 10 nM | 92.6
[13], 1000 nM | 98.7
[13], 10000 nM | 81.7
[14], 3 nM | 111
[14], 30 nM | 105
[14], 100 nM | 108
[15], 10 nM | 101
[15], 1000 nM | 119
[15], 10000 nM | 95.6
[16], 10 nM | 97.8
[16], 1000 nM | 104
[16], 10000 nM | 89.4
[17], 10 nM | 90.1
[17], 1000 nM | 103
[17], 10000 nM | 84.9
[18], 3 nM | 99.3
[18], 30 nM | 98.6
[18], 100 nM | 100
[19], 10 nM | 100
[20], 100 nM | 91.4
[21], 10 nM | 110
[22], 100 nM | 93.4
[23], 10 nM | 99.4
[24], 100 nM | 98
[25], 100 nM | 93
[26], 100 nM | 96
[27], 10 nM | 110

CNC(=O)c1cc(Oc2ccc(NC(=O)Nc3ccc(Cl)c(C(F)(F)F)c3)cc2)ccn1 [Sorafenib]
Conditions | normalised viability
[1], 1 nM | 94.9% and 108%
[1], 100 nM | 96.7% and 103%
[1], 1000 nM | 48.2% and 67.9%
[2], 0.3 nM | 101% and 88%
[2], 3 nM | 99.3% and 91.5%
[2], 10 nM | 102% and 87.5%
[3], 1000 nM | 130% and 106%
[4], 1 nM | 126% and 102%
[4], 100 nM | 109% and 123%
[4], 1000 nM | 101% and 87.8%
[5], 0.3 nM | 112% and 107%
[5], 3 nM | 108% and 99.3%
[5], 10 nM | 98.3% and 96.8%
[6], 100 nM | 115% and 126%
[6], 1000 nM | 100% and 112%
[7], 1 nM | 83.7% and 97.1%
[7], 100 nM | 99.5% and 82.8%
[7], 1000 nM | 94.5% and 80.4%
[8], 0.3 nM | 107% and 97.1%
[8], 3 nM | 98.5% and 88.8%
[9], 100 nM | 106% and 100%
[9], 1000 nM | 82.3% and 82.8%
[10], 1 nM | 99% and 84.3%
[10], 100 nM | 105% and 85.9%
[10], 1000 nM | 96.1% and 91.6%
[11], 0.3 nM | 122% and 105%
[11], 3 nM | 97.2% and 99.1%
[11], 10 nM | 96.8% and 102%
[12], 1 nM | 115% and 93.2%
[12], 1000 nM | 102% and 112%
[13], 1 nM | 92.8% and 87%
[13], 100 nM | 103% and 80.7%
[13], 1000 nM | 91% and 88.2%
[14], 0.3 nM | 94.3% and 109%
[14], 3 nM | 101% and 95.7%
[15], 1 nM | 112% and 89.3%
[15], 100 nM | 107% and 102%
[15], 1000 nM | 110% and 108%
[16], 1 nM | 103% and 90.2%
[16], 100 nM | 88.7% and 96.2%
[16], 1000 nM | 84.8% and 63.9%
[17], 1 nM | 106% and 91.3%
[17], 100 nM | 101% and 90.5%
[17], 1000 nM | 96.5% and 89%
[18], 0.3 nM | 98.3% and 99.7%
[18], 3 nM | 104% and 98.8%
[18], 10 nM | 105% and 108%
[19], 1 nM | 102% and 90%
[20], 10 nM | 90% and 86.3%
[21], 1 nM | 114% and 99%
[22], 10 nM | 113% and 129%
[23], 1 nM | 105% and 91.4%
[24], 10 nM | 114% and 97.8%
[25], 10 nM | 110% and 113%
[26], 10 nM | 102% and 96%
[27], 1 nM | 96.3% and 109%

Cc1c(CN2CCN(C(=O)[C@H](C)O)CC2)sc2c(N3CCOCC3)nc(-c3cnc(N)nc3)nc12 [GDC-0980]
Conditions | normalised viability [%]
[1], 10 nM | 86.1
[1], 1000 nM | 18.1
[1], 10000 nM | 14.2
[2], 3 nM | 100
[2], 30 nM | 94.5
[2], 100 nM | 87.6
[3], 10 nM | 115
[3], 1000 nM | 22.1
[3], 10000 nM | 12.3
[4], 10 nM | 121
[4], 1000 nM | 28.9
[4], 10000 nM | 17.1
[5], 3 nM | 112
[5], 30 nM | 98.5
[5], 100 nM | 71.9
[6], 10 nM | 95
[6], 1000 nM | 39.7
[6], 10000 nM | 35.3
[7], 10 nM | 88.7
[7], 1000 nM | 33.3
[7], 10000 nM | 13.6
[8], 3 nM | 91.9
[8], 30 nM | 84.3
[8], 100 nM | 70.8
[9], 10 nM | 113
[9], 1000 nM | 39.7
[9], 10000 nM | 26.2
[10], 10 nM | 88.7
[10], 1000 nM | 33.8
[10], 10000 nM | 15.6
[11], 3 nM | 116
[11], 30 nM | 77.8
[11], 100 nM | 56.1
[12], 10 nM | 105
[12], 1000 nM | 44.4
[12], 10000 nM | 10.7
[13], 10 nM | 81.2
[13], 1000 nM | 44.7
[13], 10000 nM | 18.2
[14], 3 nM | 102
[14], 30 nM | 82.1
[14], 100 nM | 83.5
[15], 10 nM | 102
[15], 1000 nM | 15.9
[15], 10000 nM | 9.04
[16], 10 nM | 95.6
[16], 1000 nM | 27.6
[16], 10000 nM | 23.6
[17], 10 nM | 103
[17], 1000 nM | 24.1
[17], 10000 nM | 13.7
[18], 3 nM | 102
[18], 30 nM | 83.3
[18], 100 nM | 89.2
[19], 10 nM | 96.2
[20], 100 nM | 82.2
[21], 10 nM | 101
[22], 100 nM | 67.8
[23], 10 nM | 94
[24], 100 nM | 85.3
[25], 100 nM | 85.6
[26], 100 nM | 71.7
[27], 10 nM | 100

O=C(Nc1c[nH]nc1-c1nc2ccc(CN3CCOCC3)cc2[nH]1)NC1CC1 [AT9283]
Conditions | normalised viability [%]
[1], 10 nM | 93.4
[1], 1000 nM | 57.4
[1], 10000 nM | 19
[2], 3 nM | 80
[2], 30 nM | 69
[2], 100 nM | 31.8
[3], 10 nM | 111
[3], 1000 nM | 78.8
[3], 10000 nM | 7.58
[4], 10 nM | 124
[4], 1000 nM | 33.9
[4], 10000 nM | 1.79
[5], 3 nM | 107
[5], 30 nM | 97.8
[5], 100 nM | 56.3
[6], 10 nM | 102
[6], 1000 nM | 72.5
[6], 10000 nM | 11.9
[7], 10 nM | 95.8
[7], 1000 nM | 46.7
[7], 10000 nM | 4.31
[8], 3 nM | 113
[8], 30 nM | 97.3
[8], 100 nM | 81.2
[9], 10 nM | 106
[9], 1000 nM | 43.4
[9], 10000 nM | 15.5
[10], 10 nM | 77.8
[10], 1000 nM | 51.8
[10], 10000 nM | 13.9
[11], 3 nM | 99.2
[11], 30 nM | 60.1
[11], 100 nM | 54.7
[12], 10 nM | 108
[12], 1000 nM | 43.1
[12], 10000 nM | 6.32
[13], 10 nM | 97.4
[13], 1000 nM | 64.2
[13], 10000 nM | 29.6
[14], 3 nM | 91.2
[14], 30 nM | 94.1
[14], 100 nM | 43.9
[15], 10 nM | 93.9
[15], 1000 nM | 40.3
[15], 10000 nM | 6.9
[16], 10 nM | 87.5
[16], 1000 nM | 43.3
[16], 10000 nM | 5.14
[17], 10 nM | 84.9
[17], 1000 nM | 22.1
[17], 10000 nM | 6.61
[18], 3 nM | 89.8
[18], 30 nM | 72.8
[18], 100 nM | 78.6
[19], 10 nM | 82.7
[20], 100 nM | 64.4
[21], 10 nM | 100
[22], 100 nM | 94.8
[23], 10 nM | 112
[24], 100 nM | 29.4
[25], 100 nM | 99
[26], 100 nM | 57.3
[27], 10 nM | 85.7
